In patent publication US5854280A, “Antifungal sordaridin derivatives” (Glaxo Wellcome S.A., priority 1994, dated 1998):
Converted amounts (≈) assume the structure as drawn.

Key:
[1] = acute oral toxicity (LD50); format: in vivo; settings: male mice
Method: (§1) The compounds of the invention are essentially non-toxic at therapeutically useful levels. […] The LD50 value for the compound of example 8, in male mice is >1000 mg/kg po.

[2] = test system: C. albicans 4711E; experiment: protection of mice infected with C. albicans; format: in vivo, male mice infected with C. albicans 4711E; settings: 50 mg/kg po
Text: The in vivo evaluation of compounds of formula (I) can be carried out at a series of dose levels by administration (e.g. subcutaneously, orally, intraperitoneally or intravenously) to mice or rats inoculated with a strain of Candida albicans. Untreated animals die within 3 to 9 days and the dose level at which the test compound provides 50% protection against the lethal effect of the infection is noted.
as §1

[3] = test system: C. tropicalis 2808E; experiment: in vitro antifungal MIC, two-fold serial dilution; format: cell-based, Candida tropicalis
Method: (§2) The in vitro evaluation of the anti-fungal activity of compounds of the invention was performed on liquid or solid medium by the anti-fungal two-fold serial dilution technique of determining the minimum inhibitory concentration (MIC) of anti-fungal agent that inhibited development of growth after 24 to 48 hours of incubation at 37° C. In practice, a series of agar plates or broth microdilution panels containing two-fold dilutions of anti-fungal agent tested were inoculated with a standard culture of a clinically relevant pathogen, for example, Candida albicans. The agar plates or broth microdulution panels were then examined for the presence or absence of growth of the fungus and the appropriate MIC values were noted.
(§3) Compounds of formula (I) have been tested for anti fungal activity in a standard in vitro screen and the minimum inhibiting concentration (MIC; μg/ml) determined for each compound against a variety of clinically relevant pathogens.

[4] = test system: C. albicans 2005E; experiment: in vitro antifungal MIC, two-fold serial dilution; format: cell-based, Candida albicans
Method: as §2, §3

[5] = test system: C. aibicans 2402E; experiment: in vitro antifungal MIC, two-fold serial dilution; format: cell-based, Candida albicans
Method: as §2, §3

[6] = test system: C. albicans 4711; experiment: in vitro antifungal MIC, two-fold serial dilution; format: cell-based, Candida albicans
Method: as §2, §3

[7] = test system: C. albicans 1208E; experiment: in vitro antifungal MIC, two-fold serial dilution; format: cell-based, Candida albicans
Method: as §2, §3

[8] = test system: C. glabrata 2376E; experiment: in vitro antifungal MIC, two-fold serial dilution; format: cell-based, Candida glabrata
Method: as §2, §3

[9] = test system: C. glabrata 2375E; experiment: in vitro antifungal MIC, two-fold serial dilution; format: cell-based, Candida glabrata
Method: as §2, §3

[10] = test system: C. neoformans 2867E; experiment: in vitro antifungal MIC, two-fold serial dilution; format: cell-based, Cryptococcus neoformans
Method: as §2, §3

[11] = test system: C. psuedotropicalis 2371E; experiment: in vitro antifungal MIC, two-fold serial dilution; format: cell-based, Candida pseudotropicalis
Method: as §2, §3

[12] = test system: battery of fungal organisms; settings: tested against a battery of fungal organisms; cited from earlier work
[13] = British Patent 1,162,027 / Japanese application J6 2040292A; cited from earlier work

Structure (SMILES)	LD50 [1]	activity in protecting male mice infected with C. albicans 4711E [2]	MIC (minimum inhibiting concentration) [3]	MIC (minimum inhibiting concentration) [4]	MIC (minimum inhibiting concentration) [5]	MIC (minimum inhibiting concentration) [6]	MIC (minimum inhibiting concentration) [7]	MIC (minimum inhibiting concentration) [8]	MIC (minimum inhibiting concentration) [9]	MIC (minimum inhibiting concentration) [10]	MIC (minimum inhibiting concentration) [11]	antifungal activity [12]	spectrum of action [12]	reported activity [13]
CC(C)C1=CC2CC3(C=O)C4CCC(C)C4CC2(COC2CC4OC(C)(C)OC4C(C)O2)C13C(=O)[O-].[Na+] [Example 8, [1R-(1α,3aβ,4β,4aβ,7β,7aα,8aβ)]8a-[(2,6-Dideoxy-3,4-O-isopropylidene-β-D-allopyranosyloxy)methyl]-4-formyl-4,4a,5,6,7,7a,8,8a-octahydro-7-methyl-3-(1-methylethyl)-1,4-methano-s-indacene-3a(1H)-carboxylic acid, sodium salt]	> 1000 mg/kg	active in protecting male mice	–	–	–	–	–	–	–	–	–	–	–	–
CC(C)C1=CC2CC3(C=O)C4CCC(C)C4CC2(COC2OC(C)C(OCc4ccccc4)C4OC24)C13C(=O)O [Example 54, [1R-(1α,3aβ,4β,4aβ,7β,7aα,8aβ)]8a-[(2,3-Anhydro-4-O-benzyl-6-deoxy-β-D-mannopyranosyloxy)methyl]-4-formyl-4,4a,5,6,7,7a,8,8a-octahydro-7-methyl-3-(1-methylethyl)-1,4-methano-s-indacene-3a(1H)-carboxylic acid]	–	–	≤ 0.001 µg/mL	≤ 0.001 µg/mL	≤ 0.001 µg/mL	≤ 0.001 µg/mL	≤ 0.001 µg/mL	8.00 µg/mL (≈ 14.5 µM)	8.00 µg/mL (≈ 14.5 µM)	2.00 µg/mL (≈ 3.63 µM)	0.01 µg/mL (≈ 0.0182 µM)	–	–	–
CC(C)C(=O)OC1C(C)OC(OCC23CC4C(C)CCC4C4(C=O)CC2C=C(C(C)C)C43C(=O)O)C2OC12 [Example 59, [1R-(1α,3aβ,4β,4aβ,7β,7aα,8aβ)]8a-[(2,3-Anhydro-6-deoxy-4-O-(1-methylethyl)carbonyl-β-D-mannopyranosyloxy)methyl]-4-formyl-4,4a,5,6,7,7a,8,8a-octahydro-7-methyl-3-(1-methylethyl)-1,4-methano-s-indacene-3a(1H)-carboxylic acid]	–	–	0.015 µg/mL (≈ 0.0283 µM)	≤ 0.001 µg/mL	0.008 µg/mL (≈ 0.0151 µM)	0.002 µg/mL (≈ 0.00377 µM)	0.015 µg/mL (≈ 0.0283 µM)	16.0 µg/mL (≈ 30.2 µM)	16.0 µg/mL (≈ 30.2 µM)	1.00 µg/mL (≈ 1.88 µM)	0.015 µg/mL (≈ 0.0283 µM)	–	–	–
C=CCOC1C(C)OC(OCC23CC4C(C)CCC4C4(C=O)CC2C=C(C(C)C)C43C(=O)O)C2OC12 [Example 68, [1R-(1α,3aβ,4β,4aβ,7β,7aβ,8aβ)]8a-[(4-O-Allyl,2,3-anhydro,6deoxy-β-D-mannopyranosyl)oxy-methyl]-4-formyl-4,4a5,6,7,7a8,8a-octahydro-7-methyl-3-(1-methylethyl)-1,4-methano-s-indacene-3a(1H)-carboxylic acid]	–	–	0.250 µg/mL (≈ 0.499 µM)	0.060 µg/mL (≈ 0.12 µM)	0.002 µg/mL (≈ 0.00399 µM)	0.030 µg/mL (≈ 0.0599 µM)	0.060 µg/mL (≈ 0.12 µM)	31.00 µg/mL (≈ 61.9 µM)	31.00 µg/mL (≈ 61.9 µM)	1.00 µg/mL (≈ 2 µM)	0.015 µg/mL (≈ 0.03 µM)	–	–	–
CO[C@H]1[C@@H](O)[C@H](O)[C@H](OC[C@@]23C[C@@H]4[C@H](C)CC[C@H]4[C@@]4(C=O)CC2C=C(C(C)C)[C@@]34C(=O)O)O[C@@H]1C [sordarin]	–	–	–	–	–	–	–	–	–	–	–	only moderately active	limited spectra of action	fungistatic activity
C/C=C/C=C\C(=O)O[C@H]1[C@H](O)[C@H](OCC23C[C@@H]4[C@H](C)CC[C@H]4C4(C=O)CC2C=C(C(C)C)C34C(=O)O)O[C@H](C)[C@H]1OC (some centres unmarked) [zofimarin]	–	–	–	–	–	–	–	–	–	–	–	only moderately active	limited spectra of action	antifungal activity
